Measurements reported in patent publication US5260257A, “Thermal transfer sheet” (Dai Nippon Printing Co., Ltd., priority 1991, dated 1993).

Test system: not listed separately
Assay: light fastness test (Example D1 series)
Assay type: physicochemical
Settings: Table D1; xenon, 50° C., 70 kJ/m^2
Procedure: (§1) The light fastness test was conducted as follows.
(§2) Irradiation was conducted by means of a xenon fadeometer Ci35A (manufactured by Atlas) under conditions of a black panel temperature of 50° C. and an integrating irradiation energy of 70 kJ/m^2.
(§3) The percentage fading was determined from a density change around an initial density of 1.0 according to the following equation.
(§4) Percentage fading=(1-I/I0)×100 (%)
(§5) I=optical density after irradiation; and
(§6) I0 =optical density before irradiation.
(§7) .largecircle.: less than 20% in the percentage fading
Δ: 20% or more in the percentage fading

| Compound | Light fastness |
| --- | --- |
| CCN(CC)c1ccc(N=C2C=C(NC(C)=O)C(=O)C(Cl)=C2C)c(C)c1 [Comp. Ex. D1] | .largecircle. (less than 20% in the percentage fading) |
| CCN(CC)c1ccc(N=C2C=C(NC(=O)C3CCCCC3)C(=O)C(Cl)=C2C)c(C)c1 [Comp. Ex. D2] | .largecircle. (less than 20% in the percentage fading) |

Test system: S. typhimurium TA100, TA98 and TA1538
Assay: Ames test (mutagenic test)
Assay type: cell-based
Settings: positive if reversion colonies twice or more vs control
Procedure: Ames test was conducted as a mutagenic test.
Strains used were S. typhimurium TA100, TA98 and TA1538.
When the increase in the reversion colony was twice or more as compared with that in the case of the control, the mutagenicity was judged as positive, while when the increase in the reversion colony was less than twice as compared with that in the case of the control, the mutagenicity was judged as negative.

| Compound | mutagenicity |
| --- | --- |
| CCN(CC)c1ccc(N=C2C=C(NC(C)=O)C(=O)C(Cl)=C2C)c(C)c1 [Comp. Ex. D1] | positive |
| CCN(CC)c1ccc(N=C2C=C(NC(=O)C3CCCCC3)C(=O)C(Cl)=C2C)c(C)c1 [Comp. Ex. D2] | negative |

Test system: not listed separately
Assay: light fastness test (xenon fadeometer, percentage fading)
Assay type: physicochemical
Settings: Table A2, dyes of Table A1, 50° C., 70 kJ/m^2
Procedure: as §1, §2, §3, §4, §5, §6, §7
X : 20% or more in the percentage fading

| Compound | Light fastness |
| --- | --- |
| CCN(CCC#N)c1ccc(N=C2C=C(NC(=O)C3CC3)C(=O)C=C2NS(C)(=O)=O)c(NC(C)=O)c1 [compound 7] | .largecircle. (less than 20% in the percentage fading) |
| CCOc1cc(N(CC)CC)ccc1N=C1C=CC(=O)C(NC(=O)C2CC2)=C1 [compound 4] | .largecircle. (less than 20% in the percentage fading) |
| CCN(CC)c1ccc(N=C2C=C(NC(=O)c3ccsc3)C(=O)C=C2NC(C)=O)c(C)c1 [compound 21] | .largecircle. (less than 20% in the percentage fading) |
| CCN(CC)c1ccc(N=C2C=CC(=O)C(NC(=O)C3CC3)=C2)c(NC(C)=O)c1 [compound 9] | .largecircle. (less than 20% in the percentage fading) |
| CCN(CCO)c1ccc(N=C2C=C(NC(=O)C3CC3)C(=O)C=C2NC(C)=O)c(NS(C)(=O)=O)c1 [compound 10] | .largecircle. (less than 20% in the percentage fading) |
| CCCCC1CC(C(=O)NC2=CC(=Nc3ccc(N(CC)CC)cc3C)C(C)=C(Cl)C2=O)C1 (stereo not shown) [compound 12] | .largecircle. (less than 20% in the percentage fading) |
| CCN(CCO)c1ccc(N=C2C=C(NC(=O)C3CC3)C(=O)C(Cl)=C2C)c(C)c1 [compound 2] | .largecircle. (less than 20% in the percentage fading) |
| CCN(CC)c1ccc(N=C2C=C(NC(=O)C3CC3)C(=O)C(Cl)=C2C)cc1 [compound 11] | .largecircle. (less than 20% in the percentage fading) |
| CCN(CC)c1ccc(N=C2C=C(NC(=O)C3CCCC3)C(=O)C(Cl)=C2C)c(C)c1 [compound 15] | .largecircle. (less than 20% in the percentage fading) |
| CCN(CCNS(C)(=O)=O)c1ccc(N=C2C=C(NC(=O)C3CC3)C(=O)C=C2NC(C)=O)c(C)c1 [compound 6] | .largecircle. (less than 20% in the percentage fading) |
| CCOc1cc(N(CC)Cc2ccccc2)ccc1N=C1C=C(NC(=O)C2CC2)C(=O)C=C1NC(C)=O [compound 5] | .largecircle. (less than 20% in the percentage fading) |

Same assay, conditions: Table A3, Comparative Examples A1-A6, 50° C., 70 kJ/m^2

| Light fastness | Compound |
| --- | --- |
| Δ | CNc1ccc(Nc2cccc(C)c2)c2c1C(=O)c1ccccc1C2=O [Comp. Ex. A3, C.I. Solvent Blue 63, reference compound] |

Same assay, conditions: Table B2, dyes of Table B1, 50° C., 70 kJ/m^2

| Compound | Light fastness |
| --- | --- |
| CCN(CCNS(C)(=O)=O)c1ccc(N=C2C=C(NC(=O)C3CC=CC3)C(=O)C=C2NS(C)(=O)=O)c(C)c1 [Dye No. 14 in Table B1] | .largecircle. (less than 20% in the percentage fading) |
| CCN(CCNS(C)(=O)=O)c1ccc(N=C2C=C(NC(=O)C3CC=CCC3)C(=O)C(Cl)=C2C)c(C)c1 (stereo not shown) [compound 24] | .largecircle. (less than 20% in the percentage fading) |
| CCC1=C(Cl)C(=O)C(NC(=O)C2CC=CCC2)=CC1=Nc1ccc(N(CC)CC)cc1C (stereo not shown) [Dye No. 5 in Table B1] | .largecircle. (less than 20% in the percentage fading) |
| CCOc1cc(N(CC)CC)ccc1N=C1C=CC(=O)C(NC(=O)C2CC=CCC2)=C1 (stereo not shown) [Dye No. 4 in Table B1] | .largecircle. (less than 20% in the percentage fading) |
| CCN(CCOC)c1ccc(N=C2C=C(NC(=O)C3=CCC=CC3)C(=O)C=C2NC(C)=O)c(NC(C)=O)c1 [Dye No. 19 in Table B1] | .largecircle. (less than 20% in the percentage fading) |
| CCN(CC)c1ccc(N=C2C=C(NC(=O)C3=CCC=CC3)C(=O)C=C2NC(C)=O)c(C)c1 [Dye No. 20 in Table B1] | .largecircle. (less than 20% in the percentage fading) |
| CCN(CCCl)c1ccc(N=C2C=C(NC(=O)C3CC=CCC3)C(=O)C(Cl)=C2C)c(NC(=O)NC)c1 (stereo not shown) [Dye No. 7 in Table B1] | .largecircle. (less than 20% in the percentage fading) |
| CCN(CC)c1ccc(N=C2C=CC(=O)C(NC(=O)C3C=CCC=C3)=C2)c(NC(C)=O)c1 [Dye No. 11 in Table B1] | .largecircle. (less than 20% in the percentage fading) |
| CCN(c1ccccc1)c1ccc(N=C2C=C(NC(=O)C3=CCCC3)C(=O)C=C2NC(=O)NC)c(Cl)c1 [Dye No. 17 in Table B1] | .largecircle. (less than 20% in the percentage fading) |
| CCN(CC)c1ccc(N=C2C=C(NC(=O)C3CC=CCC3)C(=O)C=C2NC(C)=O)c(C)c1 (stereo not shown) [Dye No. 3 in Table B1] | .largecircle. (less than 20% in the percentage fading) |
| CCOc1cc(N(CC)CCO)ccc1N=C1C=C(NC(=O)C2=CCCCC2)C(=O)C=C1NC(C)=O [Dye No. 9 in Table B1] | .largecircle. (less than 20% in the percentage fading) |
| CCN(CC)c1ccc(N=C2C=C(NC(=O)C3=CCC=CC3)C(=O)C(Cl)=C2C)c(C)c1 [Dye No. 10 in Table B1] | .largecircle. (less than 20% in the percentage fading) |

Same assay, conditions: Table B3, Comparative Examples B1-B6, 50° C., 70 kJ/m^2

| Light fastness | Compound |
| --- | --- |
| Δ | CNc1ccc(Nc2cccc(C)c2)c2c1C(=O)c1ccccc1C2=O [Comp. Ex. A3, C.I. Solvent Blue 63, reference compound] |

Same assay, conditions: Table C2, dyes of Table C1, 50° C., 70 kJ/m^2

| Compound | Light fastness |
| --- | --- |
| CCOc1cc(N(CC)CCO)ccc1N=C1C=C(NC(=O)C2CC3C=CC2C3)C(=O)C=C1NC(C)=O (stereo not shown) [Dye No. 10 in Table C1] | .largecircle. (less than 20% in the percentage fading) |
| CCN(CC)c1ccc(N=C2C=C(NC(=O)C3CC4C=C(C)C3C4)C(=O)C(Cl)=C2C)c(C)c1 (stereo not shown) [Dye No. 18 in Table C1] | .largecircle. (less than 20% in the percentage fading) |
| CCN(CC)c1ccc(N=C2C=CC(=O)C(NC(=O)C3=CC4C=CC3C4)=C2)c(NC(C)=O)c1 (stereo not shown) [Dye No. 12 in Table C1] | .largecircle. (less than 20% in the percentage fading) |
| CCN(CC)c1ccc(N=C2C=C(NC(=O)C3CC4C=CC3S4)C(=O)C(Cl)=C2C)c(C)c1 (stereo not shown) [Dye No. 22 in Table C1] | .largecircle. (less than 20% in the percentage fading) |
| CCOc1cc(N(CC)CC)c(OCC)cc1N=C1C=C(NC(=O)C2CC3C=C(C)C2C3)C(=O)C(Cl)=C1C (stereo not shown) [Dye No. 19 in Table C1] | .largecircle. (less than 20% in the percentage fading) |
| CCN(CC)c1ccc(N=C2C=C(NC(=O)C3CC4C=CC3C4)C(=O)C=C2NC(C)=O)c(C)c1 (stereo not shown) [Dye No. 4 in Table C1] | .largecircle. (less than 20% in the percentage fading) |
| CCC1=C(Cl)C(=O)C(NC(=O)C2CC3C=CC2C3)=CC1=Nc1ccc(N(CC)CC)cc1C (stereo not shown) [Dye No. 7 in Table C1] | .largecircle. (less than 20% in the percentage fading) |
| CCN(CC)c1ccc(N=C2C=C(NC(=O)C3CC4C=CC3N4C)C(=O)C(Cl)=C2C)c(C)c1 (stereo not shown) [Dye No. 24 in Table C1] | .largecircle. (less than 20% in the percentage fading) |
| CCN(CCC#N)c1ccc(N=C2C=C(NC(=O)C3=CC4C=CC3C4)C(=O)C(Cl)=C2C)c(NS(C)(=O)=O)c1 (stereo not shown) [Dye No. 14 in Table C1] | .largecircle. (less than 20% in the percentage fading) |
| CCN(CC)c1ccc(N=C2C=C(NC(=O)C3CC4C=CC3C4)C(=O)C(Cl)=C2C)c(C)c1 (stereo not shown) [Dye No. 1 in Table C1] | .largecircle. (less than 20% in the percentage fading) |
| CCN(CCO)c1ccc(N=C2C=C(NC(=O)C3CC4C=CC3C4)C(=O)C(Cl)=C2C)c(C)c1 (stereo not shown) [Dye No. 3 in Table C1] | .largecircle. (less than 20% in the percentage fading) |
| CCN(CC)c1ccc(N=C2C=C(NC(=O)C3CC4C=C(C)C3C4)C(=O)C=C2NC(C)=O)c(C)c1 (stereo not shown) [Dye No. 20 in Table C1] | .largecircle. (less than 20% in the percentage fading) |
| CCOCCN(CC)c1ccc(N=C2C=C(NC(=O)C3CC4CCC3C4)C(=O)C(Cl)=C2C)c(C)c1 (stereo not shown) [Dye No. 17 in Table C1] | .largecircle. (less than 20% in the percentage fading) |

Same assay, conditions: Table C (C3), Comparative Examples C1-C6, 50° C., 70 kJ/m^2

| Compound | Light fastness |
| --- | --- |
| CNc1ccc(Nc2cccc(C)c2)c2c1C(=O)c1ccccc1C2=O [Comp. Ex. A3, C.I. Solvent Blue 63, reference compound] | Δ |
| CCN(CC)c1ccc(N=C2C=C(NC(=O)c3ccccc3)C(=O)C(Cl)=C2C)c(C)c1 [Comparative Example C6, reference compound] | .largecircle. (less than 20% in the percentage fading) |

Test system: not listed separately
Assay: ink stability test (precipitation of the dye in the ink observed with the naked eye)
Assay type: physicochemical
Settings: Table D1; room temperature (20°±3° C.), 48 hr
Procedure: The following ink composition for the formation of a dye supporting layer was prepared and heated to 70° C. to completely dissolve the ink.

| Compound | stability of ink |
| --- | --- |
| CCN(CC)c1ccc(N=C2C=C(NC(C)=O)C(=O)C(Cl)=C2C)c(C)c1 [Comp. Ex. D1] | large amount of crystal |
| CCN(CC)c1ccc(N=C2C=C(NC(=O)C3CCCCC3)C(=O)C(Cl)=C2C)c(C)c1 [Comp. Ex. D2] | small amount of crystal |
